The test system of experiment [1] is Leishmania donovani amastigote forms. Briefly: Amastigote test (intracellular forms in J774.2 macrophages), L. donovani. As to conditions: Leishmania donovani, 72 h, mean ± SD. The experiment is classed as cell-based. On the procedure: (§1) Promastigote forms of three different Leishmania spp., L. donovani (MHOM/PE/84/LC26), L. infantum (MCAN/ES/2001/UCM-10) and L. braziliensis (MHOM/BR/1975/M2904), were cultured in vitro in Medium Trypanosomes Liquid (MTL) supplemented with 10% inactivated foetal calf serum (FCS) in an air atmosphere at 28 °C, in Roux flasks (Corning, Manassas, VA, USA) with a surface area of 75 cm^2, according to [33].
(§2) The compounds and the reference drug Glu were dissolved in DMSO (Panreac, Barcelona, Spain) and tested from 100 µM to 1 µM with 0.1% (v/v) DMSO final concentration in plates. Therefore, controls were prepared including 0.1% (v/v) of this component, as previously described.
(§3) J774.2 macrophages were grown and seeded at a density of 1 × 10^4 cells/well in 24-well microplates (Nunc) with rounded coverslips on the bottom and cultured for 48 h in humidified 95% air, 5% CO2 atmosphere at 37 °C in Minimal Essential Medium (MEM) with 2 mM glutamine and 20% (v/v) inactivated FCS. Adherent macrophages were infected with metacyclic promastigotes in the stationary growth phase of L. donovani, L. infantum and L. braziliensis at a multiplicity of infection (MOI) ratio of 1:10 and maintained for 24 h. Non-phagocytosed parasites were removed by washing, and after addition of the testing compounds at concentrations from 100 µM to 1 µM, cultured in 500 μL/well volumes. Control cultures were also included. After 72 h incubation, leishmanicidal activity was assessed based on the number of amastigotes in treated and untreated cultures in methanol-fixed and Giemsa-stained preparations by analyzing 500 host cells distributed in randomly chosen microscopic fields. The leishmanicidal effect was calculated as described to determine the leishmanicidal activity in the promastigote forms. Each drug concentration was tested in triplicate in four separate determinations.

Experiment [2] relates to L. braziliensis promastigotes. In words: Ultrastructural alterations by TEM, L. braziliensis. It is filed as cell-based, Leishmania braziliensis. As to conditions: 72 h at IC25 concentration. The protocol:
Parasites were cultured at a density of 5 × 10^5 cells/mL with medium containing the tested compounds at IC25 concentrations. After 72 h at 28 °C, the cultures were processed using a technique previously described and analysed by TEM (LIBRA 120 PLUS, Zeiss, Barcelona, Spain).

Experiment [3] concerns Leishmania braziliensis promastigote forms. Briefly: Promastigote test (extracellular forms), L. braziliensis. The experiment is classed as cell-based. The settings on record: Leishmania braziliensis; 72 h; 100 µM to 1 µM; mean ± SD. On the procedure: as §1, §2
(§4) Promastigote forms were collected in the exponential growth phase and seeded at 1 × 10^5 parasites/mL in 24-well microplates (Nunc, Naperville, IL, USA), after adding each compound at concentrations from 100 µM to 1 µM and cultured in 500 μL/well volumes at 28 °C. After 72 h incubation, the leishmanicidal activity was assessed using a Neubauer haemocytometric chamber in comparison with the control cultures. […] Each drug concentration was tested in triplicate in four separate determinations.

Experiment [4] has as its system J774.2 murine macrophages. In words: Cytotoxicity test on macrophages by flow cytometry. It is filed as cell-based, mouse. The settings on record: Mus musculus, J774.2 macrophages, 72 h, read-out: Toxicity IC50 Macrophage. On the procedure:
as §2
The macrophage line J774.2 [European collection of cell cultures (ECACC) number 91051511] was derived in 1968 from a tumour in a female BALB/c mouse. Macrophages were grown in humidified 95% air, 5% CO2 atmosphere at 37 °C in Minimal Essential Medium (MEM) with 2 mM glutamine and 20% (v/v) inactivated FCS. The cytotoxicity test on macrophages was performed by Flow cytometry analysis according to a method previously described. Briefly, cells were seeded at a density of 5 × 10^4 cells/well in 24-well microplates (Nunc, Naperville, IL, USA). After 48 h incubation, the medium was removed, and fresh medium was added together with each test compound at concentrations from 100 µM to 1 µM and cultured in 500 μL/well volumes for 72 h. Thereafter, cells were recovered by centrifugation, and cell viability was determined by Flow cytometry (FACS Vantage flow cytometer, Becton Dickinson, San Jose, CA, USA) after incubating the cells with propidium iodide ([…]) and fluorescein diacetate (100 ng/mL). The percentage of viability was calculated in comparison with the control cultures. […] Each drug concentration was tested in triplicate in four separate determinations.

For experiment [5], the system named is Leishmania donovani infection of J774.2 macrophages. Briefly: Infectivity assay, L. donovani. It is filed as cell-based. The settings on record: IC25 concentration. The protocol:
After the initial in vitro studies we were interested in finding out if the six most leishmanicidal compounds could also prevent the infection of host cells. For this reason, we conducted an assay in which the J774.2 macrophages were exposed to the metacyclic promastigotes and the compound at IC25 concentration at the same time. The propagation of the parasitic infection was determined by measuring the infection rate and the average number of amastigotes per macrophage cell present during the 10-day treatment period. In addition, the endocytic (short-time of infection) and infection (long-time of infection) indexes were calculated.
Adherent macrophages were grown, seeded and infected with metacyclic promastigotes as mentioned above. The compounds at IC25 concentrations (calculated using linear regression analysis from the Kc values of the concentrations employed) were added immediately after infection and incubation was performed for 12 h at 37 °C in humidified 95% air, 5% CO2 atmosphere. in humidified 95% air, 5% CO2 atmosphere at 37 °C Non-phagocytosed parasites and drugs were removed by washing, and then the infected cultures were grown for 10 days, adding fresh culture medium every 48 h, according to [35]. Amastigotes per macrophage count was determined in methanol-fixed and Giemsa-stained preparations as mentioned above every 48 h. The infection rate (defined as the percentage of infected cells), the average number of amastigotes per macrophage, and the endocytic and infection indexes (calculated by multiplying the infection rate by the average number of amastigotes per macrophage) were determined. Each drug concentration was tested in triplicate in four separate determinations.

In experiment [6] the test system is Leishmania donovani promastigote forms. Briefly: Promastigote test (extracellular forms), L. donovani. The experiment is classed as cell-based. As to conditions: Leishmania donovani; 72 h; 100 µM to 1 µM; mean ± SD. The protocol:
as §1, §2, §4

For experiment [7], the system named is Leishmania braziliensis amastigote forms. In words: Amastigote test (intracellular forms in J774.2 macrophages), L. braziliensis. The experiment is classed as cell-based. The settings on record: Leishmania braziliensis, 72 h, mean ± SD. The protocol:
as §1, §2, §3

Experiment [8] relates to Leishmania infantum amastigote forms. Briefly: Amastigote test (intracellular forms in J774.2 macrophages), L. infantum. The experiment is classed as cell-based. The settings on record: Leishmania infantum, 72 h, mean ± SD. The protocol: as §1, §2, §3
Where [9] appears, read: last day of the experiment (day 10).

This is an account of results in paper PMC6337631, “Effective Tetradentate Compound Complexes against Leishmania spp. that Act on Critical Enzymatic Pathways of These Parasites” (Molecules, 2018).

In the case of `CN(C)c1ccnc(CN2CCC[C@H]2[C@@H]2CCCN2Cc2cc(N(C)C)ccn2)c1` [Compound 7], the IC50 in experiment [1] worked out at 1.1 ± 0.2 µM; in experiment [3], 11.7 ± 0.8 µM; in experiment [4] it was 172 ± 11.3 µM; in experiment [6] it was 8.1 ± 3.9 µM; in experiment [7], 8.5 ± 0.3 µM; in experiment [8] it was 9 ± 0.4 µM. Besides, the “ultrastructural alterations of L. braziliensis promastigotes (TEM)” value in experiment [2] was “damaged, swollen, and full of vacuoles”. In experiment [5] (10-day infectivity assay), the “day at which the decline in the infection rate appeared, L. donovani” value turned out to be 2 days. Further, the “percentage of decrease in infection rate in comparison to the control, L. donovani” value in experiment [5] (setting [9]) turned out to be 88%. Further, the “percentage of decrease in number of amastigotes per macrophage cell in comparison to the control, L. donovani” value in experiment [5] (setting [9]) amounted to 74%.
